ChEMBL document CHEMBL1156399, “A quinolone alkaloid with antioxidant activity from the aleurone layer of anthocyanin-pigmented rice” (J Nat Prod, 2001)
Converted amounts (≈) assume the structure as drawn.

Test system: Radical scavenging activity
Assay: Antioxidant activity assessed as DPPH radical scavenging activity
Assay type: functional

SMILES | IC50 [µg/mL]
COC(=O)c1cc(=O)[nH]c2ccc(O)cc12 | 36.4 (≈ 166 µM)
O=C1O[C@H]([C@@H](O)CO)C(O)=C1O [ASCORBIC ACID] | 21.8 (≈ 124 µM)
COc1ccc(O)c(C(C)(C)C)c1.COc1ccc(O)cc1C(C)(C)C [BUTYLATED HYDROXYANISOLE] | 20.6
